The values below come from US8653087B2, “Pyrido [5, 4-D] pyrimidines as cell proliferation inhibitors” (Boehringer Ingelheim International GmbH, priority 2008, dated 2014).

Bounds are passed on as bounds.

Chain of B-Raf (V600E)-kinase (P15056 whole entry V600E): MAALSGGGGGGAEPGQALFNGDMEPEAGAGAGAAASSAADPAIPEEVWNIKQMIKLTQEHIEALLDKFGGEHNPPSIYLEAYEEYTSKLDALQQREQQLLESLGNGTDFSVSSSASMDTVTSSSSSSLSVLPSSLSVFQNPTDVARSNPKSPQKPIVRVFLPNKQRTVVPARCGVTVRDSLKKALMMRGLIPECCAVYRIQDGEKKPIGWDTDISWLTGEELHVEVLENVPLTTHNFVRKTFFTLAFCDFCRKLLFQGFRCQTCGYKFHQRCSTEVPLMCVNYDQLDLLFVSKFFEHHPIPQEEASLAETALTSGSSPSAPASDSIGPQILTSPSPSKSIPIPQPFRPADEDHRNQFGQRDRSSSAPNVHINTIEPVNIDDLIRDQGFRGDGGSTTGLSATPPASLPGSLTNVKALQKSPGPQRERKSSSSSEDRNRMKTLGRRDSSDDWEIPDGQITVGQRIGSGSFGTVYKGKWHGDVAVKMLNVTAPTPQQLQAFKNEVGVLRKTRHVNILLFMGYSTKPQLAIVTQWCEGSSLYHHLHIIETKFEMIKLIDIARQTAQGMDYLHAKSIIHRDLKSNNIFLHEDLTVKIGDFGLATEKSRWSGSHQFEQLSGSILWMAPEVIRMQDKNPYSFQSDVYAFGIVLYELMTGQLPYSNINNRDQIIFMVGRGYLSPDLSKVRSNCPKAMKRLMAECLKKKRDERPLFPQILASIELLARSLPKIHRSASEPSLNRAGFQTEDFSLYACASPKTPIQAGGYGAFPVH

This assay deals with B-Raf (V600E)-kinase (Homo sapiens (Human), UniProt P15056, V600E). Kind of assay: Kinase test B-RAF (V600E). The format is biochemical. To be noted: B-RAF (V600E) kinase test, 250 μM ATP. In short, it runs like this:
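Read-out is DELFIA europium TRF of phospho-MEK (Ser217/221) on biotinylated MEK1 bound to streptavidin plates, IC50 from dose-response. Reaction ran 60 min at RT with 250 μM ATP, after a 24 h RT preincubation of compound with B-Raf (V600E) kinase, 5% DMSO final.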
As for `Cc1ccc(C(=O)Nc2cc(C(C)(C)C)nn2C)cc1Oc1ncnc2cnc(N3CCOCC3)nc12` [III-591], half-maximal inhibition (IC50) required 1 nM.

`Cc1ccc(C(=O)Nc2cc(C(C)(C)C)on2)cc1Nc1ncnc2cnc(NC3CC(N4CCN(C)CC4)C3)nc12` (stereo not shown) [III-592]: the IC50 (as a rule, the concentration at which inhibition is half-maximal) is below 1 nM.

In turn, `COc1ccc(NC(=O)c2ccc(C)c(Nc3ncnc4cnc(NC5CC(N6CCN(C)CC6)C5)nc34)c2)cc1C(F)(F)F` (stereo not shown) [III-593] had an IC50 of 1 nM.

`COCCN1CCC(Nc2ncc3ncnc(Nc4cc(C(=O)Nc5cc(C(C)(C)C)on5)ccc4C)c3n2)CC1` [III-594] registered an IC50 of 1 nM. In other words, the single-digit nanomolar range.

The compound `Cc1ccc(C(=O)Nc2ccnc(C(C)(C)C)c2)cc1Nc1ncnc2cnc(NC3CCN(C)CC3)nc12` [III-595] came in with an IC50 of 1 nM.

In the case of `Cc1ccc(C(=O)Nc2cc(C(C)(C)C)on2)cc1Nc1ncnc2cnc(N(C)C3CC(N4CCN(C)CC4)C3)nc12` (stereo not shown) [III-596], half-maximal inhibition (IC50) required 2 nM.

For `Cc1ccc(C(=O)Nc2ccnc(C(C)(C)C)c2)cc1Nc1ncnc2cnc(N(C)C3CC(N4CCN(C)CC4)C3)nc12` (stereo not shown) [III-597], the midpoint of inhibition, the IC50, lay at 5 nM.

`Cc1ccc(C(=O)Nc2cc(C(C)(C)C)on2)cc1Nc1ncnc2cnc(NCCCN(C)C)nc12` [III-598] displayed a concentration for half-maximal inhibition (IC50) below 1 nM.

`COc1ccc(NC(=O)c2ccc(C)c(Nc3ncnc4cnc(N5CCC(CN(C)C)CC5)nc34)c2)cc1C(F)(F)F` [III-599]: the IC50 was determined as 1 nM.

With `Cc1ccc(C(=O)Nc2cc(C(C)(C)C)n[nH]2)cc1Nc1ncnc2cnc(N3CCC(CN4CCCC4)CC3)nc12` [III-600], inhibition was half-maximal at 3 nM (IC50).

With `CC1=Nc2ccc(NC(=O)c3ccc(C)c(Nc4ncnc5cnc(N6CCC(CN7CCCC7)CC6)nc45)c3)cc2C1(C)C` [III-601], half-maximal inhibition (IC50) was put at 6 nM. This IC50 lies about 2-fold higher than the previous one.

`Cc1ccc(C(=O)Nc2cc(C(C)(C)C)n[nH]2)cc1Nc1ncnc2cnc(N3CCN(CC4CCOC4)CC3)nc12` (stereo not shown) [III-602] had an IC50 of 9 nM.

Compound `Cc1ccc(C(=O)Nc2cc(C(C)(C)C)on2)cc1Nc1ncnc2cnc(N3CCC4(CCN(C)C4)C3)nc12` (stereo not shown) [III-603] came in with an IC50 of 1 nM.

`Cc1ccc(C(=O)Nc2ccnc(C(C)(C)C)c2)cc1Nc1ncnc2cnc(N3CCC(CN4CCCC4)CC3)nc12` [III-604] gave an IC50 of 3 nM.

For the compound `Cc1cn(-c2ncc3ncnc(Nc4cc(C(=O)Nc5cc(C(C)(C)C)n[nH]5)ccc4C)c3n2)cn1` [III-605], half-maximal inhibition (IC50) required 6 nM.

With `Cc1ccc(C(=O)Nc2ccnc(C(C)(C)C)c2)cc1Nc1ncnc2cnc(N3CCC(CCN(C)C)CC3)nc12` [III-606], the IC50 is 3 nM.

`Cc1ccc(C(=O)Nc2ccc3c(c2)OC(F)(F)C(F)(F)O3)cc1Nc1ncnc2cnc(N3CCN(CCN(C)C)CC3)nc12` [III-607] registered an IC50 of 1 nM.

Take `COCCN1CCN(c2ncc3ncnc(Nc4cc(C(=O)Nc5ccc6c(c5)OC(F)(F)OC6(F)F)ccc4C)c3n2)CC1` [III-608]: the IC50 was 7 nM.

`Cc1ccc(NC(=O)c2cccc(C(C)(C)C#N)c2)cc1Nc1ncnc2cnc(N3CCOCC3)nc12` [IV-2] yielded an IC50 below 1 nM.

`Cc1ccc(NC(=O)c2cccc(C(F)(F)F)c2)cc1Nc1ncnc2cnc(N3CCN(C)CC3)nc12` [IV-3] came in with an IC50 of 12 nM. That is a double-digit nanomolar value.

In turn, `Cc1ccc(NC(=O)c2cc(C(C)(C)C)n[nH]2)cc1Nc1ncnc2cnc(N3CCN(C)CC3)nc12` [IV-4] had an IC50 of 44 nM.

As to `Cc1ccc(NC(=O)c2cc(C(C)(C)C)on2)cc1Nc1ncnc2cnc(N3CCN(C)CC3)nc12` [IV-5], the IC50 was 129 nM.

As to `Cc1ccc(NC(=O)c2cccc(C(C)(C)C#N)c2)cc1Nc1ncnc2cnc(N3CCN(C)CC3)nc12` [IV-7], the IC50 stood at 1 nM.

As for `Cc1ccc(NC(=O)c2cc(C(C)(C)C)nn2C)cc1Nc1ncnc2cnc(N3CCN(C)CC3)nc12` [IV-10], the IC50 amounted to 221 nM.

Consider `Cc1ccc(NC(=O)c2cccc(C(C)(C)C#N)c2)cc1Nc1ncnc2cnc(N(C)C)nc12` [IV-12], for which the midpoint of inhibition, the IC50, lay at 1 nM.

`Cc1ccc(NC(=O)c2cc(N3CCN(C)CC3)cc(C(F)(F)F)c2)cc1Nc1ncnc2cnc(N(C)C)nc12` [IV-13] returned an IC50 of 3 nM.

The compound `COc1ccc(C(=O)Nc2ccc(C)c(Nc3ncnc4cnc(N(C)C)nc34)c2)cc1C(F)(F)F` [IV-15] gave an IC50 of 3 nM.

In the case of `Cc1ccc(NC(=O)c2cc(N3CCN(C)CC3)cc(C(F)(F)F)c2)cc1Nc1ncnc2cnc(N(C)CCN(C)C)nc12` [IV-18], the IC50 amounted to 9 nM.

In turn, `Cc1ccc(NC(=O)c2cccc(C(C)(C)C#N)c2)cc1Nc1ncnc2cnc(N(C)CCCN(C)C)nc12` [IV-22] returned an IC50 of 2 nM.

In turn, `Cc1ccc(NC(=O)c2cc(N3CCN(C)CC3)cc(C(F)(F)F)c2)cc1Nc1ncnc2cnc(N(C)CCCN(C)C)nc12` [IV-23] displayed an IC50 of 4 nM. Compared with the last compound, the IC50 is about 2-fold higher.

`Cc1ccc(NC(=O)c2cc(C(C)(C)C)nn2C)cc1Nc1ncnc2cnc(N(C)CCCN(C)C)nc12` [IV-24] showed an IC50 of 72 nM. Against the preceding compound, the IC50 is about 18-fold higher.

For the compound `Cc1ccc(NC(=O)c2cccc(C(C)(C)C#N)c2)cc1Nc1ncnc2cnc(N3CCN(C4CC4)CC3)nc12` [IV-26], half-maximal inhibition (IC50) was put at 2 nM.

For the compound `CCN1CCN(c2ncc3ncnc(Nc4cc(NC(=O)c5cccc(C(C)(C)C#N)c5)ccc4C)c3n2)CC1` [IV-27], the IC50 was found to be 1 nM.

`Cc1ccc(NC(=O)c2cccc(C(C)(C)C#N)c2)cc1Nc1ncnc2cnc(NC3CCN(C)CC3)nc12` [IV-28] yielded an IC50 of 1 nM.

In turn, `Cc1ccc(NC(=O)c2cccc(C(C)(C)C#N)c2)cc1Nc1ncnc2cnc(N(C)C3CCN(C)CC3)nc12` [IV-29] yielded an IC50 of 1 nM.

The compound `Cc1ccc(NC(=O)c2cccc(C(C)(C)C#N)c2)cc1Nc1ncnc2cnc(NC3CCOC3)nc12` (stereo not shown) [IV-30] displayed an IC50 below 1 nM.

`Cc1ccc(NC(=O)c2cccc(C(C)(C)C#N)c2)cc1Nc1ncnc2cnc(N(C)C3CCOCC3)nc12` [IV-31] had an IC50 of 5 nM.

For the compound `Cc1ccc(NC(=O)c2cccc(C(C)(C)C#N)c2)cc1Nc1ncnc2cnc(NC3CCOC3)nc12` (stereo not shown) [IV-32], 1 nM corresponded to half-maximal inhibition (IC50).

Turning to `Cc1ccc(NC(=O)c2cccc(C(C)(C)C#N)c2)cc1Nc1ncnc2cnc(N3CCC(F)(F)C3)nc12` [IV-33], the IC50 is 2 nM.

The compound `Cc1ccc(NC(=O)c2cccc(C(C)(C)C#N)c2)cc1Nc1ncnc2cnc(N3CC[C@@H](F)C3)nc12` [IV-34] displayed an IC50 of 2 nM.

With `Cc1ccc(NC(=O)c2cccc(C(C)(C)C#N)c2)cc1Nc1ncnc2cnc(N3CC[C@H](F)C3)nc12` [IV-35], the midpoint of inhibition, the IC50, lay at 2 nM. That is a single-digit nanomolar value.

`CC(=O)N1CCN(c2ncc3ncnc(Nc4cc(NC(=O)c5cccc(C(C)(C)C#N)c5)ccc4C)c3n2)CC1` [IV-36] had a half-inhibitory concentration (IC50) of 4 nM.

Compound `Cc1ccc(NC(=O)c2cccc(C(C)(C)C#N)c2)cc1Nc1ncnc2cnc(N(C)C3CCOC3)nc12` (stereo not shown) [IV-37] displayed an IC50 of 1 nM.

`Cc1ccc(NC(=O)c2cccc(C(C)(C)C#N)c2)cc1Nc1ncnc2cnc(NC3CCOCC3)nc12` [IV-38] yielded an IC50 of 2 nM.

Turning to `Cc1ccc(NC(=O)c2cccc(C(C)(C)C#N)c2)cc1Nc1ncnc2cnc(N(C)CC3CCOCC3)nc12` [IV-39], 4 nM corresponded to half-maximal inhibition (IC50). Compared with the last compound, the IC50 is about 2-fold higher.

`COc1ncc2ncnc(Nc3cc(NC(=O)c4cccc(C(C)(C)C#N)c4)ccc3C)c2n1` [IV-40] showed an IC50 of 2 nM.

Compound `COc1ncc2ncnc(Nc3cc(NC(=O)c4ccc(OC)c(C(F)(F)F)c4)ccc3C)c2n1` [IV-42] displayed an IC50 of 13 nM.

The compound `COc1ncc2ncnc(Nc3cc(NC(=O)c4cc(N5CCN(C)CC5)cc(C(F)(F)F)c4)ccc3C)c2n1` [IV-46] showed an IC50 of 3 nM.

In the case of `COc1ncc2ncnc(Nc3cc(NC(=O)c4ccc(Cl)c(C(F)(F)F)c4)ccc3C)c2n1` [IV-50], the IC50 amounted to 59 nM.

In turn, `Cc1ccc(NS(=O)(=O)CC(F)(F)F)cc1Nc1ncnc2cnc(N3CCN(C)CC3)nc12` [IV-53] gave an IC50 of 10000 nM.

As for `Cc1ccc(NS(=O)(=O)CCC(C)C)cc1Nc1ncnc2cnc(N3CCN(C)CC3)nc12` [IV-54], the IC50 came to 10000 nM.

For `Cc1ccc(NS(=O)(=O)C2CCCCC2)cc1Nc1ncnc2cnc(N3CCN(C)CC3)nc12` [IV-55], half-maximal inhibition (IC50) was put at 10000 nM.

For `CCC(C)S(=O)(=O)Nc1ccc(C)c(Nc2ncnc3cnc(N4CCN(C)CC4)nc23)c1` (stereo not shown) [IV-56], the IC50 came to 10000 nM.

As to `Cc1ccc(NS(=O)(=O)CC(C)C)cc1Nc1ncnc2cnc(N3CCN(C)CC3)nc12` [IV-57], the IC50 worked out at 10000 nM.

Regarding `Cc1ccc(NS(=O)(=O)C(C)C)cc1Nc1ncnc2cnc(N3CCN(C)CC3)nc12` [IV-58], 49 nM corresponded to half-maximal inhibition (IC50). This IC50 lies about 200-fold lower than the previous one.

On to `Cc1ccc(NS(=O)(=O)CCC(F)(F)F)cc1Nc1ncnc2cnc(N3CCN(C)CC3)nc12` [IV-59], for which the IC50 is 2000 nM. Against the preceding compound, the IC50 is about 41-fold higher.

The compound `Cc1ccc(NS(=O)(=O)CC2CC2)cc1Nc1ncnc2cnc(N3CCN(C)CC3)nc12` [IV-60] gave an IC50 of 2000 nM.

In turn, `Cc1ccc(NS(=O)(=O)c2cccc(C(F)(F)F)c2)cc1Nc1ncnc2cnc(N3CCN(C)CC3)nc12` [IV-61] yielded an IC50 of 10000 nM.

Take `Cc1ccc(NS(=O)(=O)CC2CCCO2)cc1Nc1ncnc2cnc(N3CCN(C)CC3)nc12` (stereo not shown) [IV-62]: 2000 nM corresponded to half-maximal inhibition (IC50).

Regarding `Cc1ccc(NS(=O)(=O)C2CC2)cc1Nc1ncnc2cnc(N3CCN(C)CC3)nc12` [IV-63], the IC50 was 595 nM.

With `CCS(=O)(=O)Nc1ccc(C)c(Nc2ncnc3cnc(N4CCN(C)CC4)nc23)c1` [IV-64], the midpoint of inhibition, the IC50, lay at 521 nM.

`CCCS(=O)(=O)Nc1ccc(C)c(Nc2ncnc3cnc(N4CCN(C)CC4)nc23)c1` [IV-65]: half-maximal inhibition (IC50) required 2000 nM.

`Cc1ccc(NS(C)(=O)=O)cc1Nc1ncnc2cnc(N3CCN(C)CC3)nc12` [IV-66] showed an IC50 of 10000 nM.

Consider `CCN1CCN(c2cc(C(=O)Nc3ccc(C)c(Nc4ncnc5cnc(N6CCOCC6)nc45)c3)cc(C(C)(C)C#N)c2)CC1` [IV-67], for which the IC50 amounted to 2 nM.

Consider `Cc1ccc(NC(=O)c2cc(N3CCN(C)CC3)cc(C(C)(C)C#N)c2)cc1Nc1ncnc2cnc(N3CCOCC3)nc12` [IV-68], for which the IC50 came out at 3 nM.

In the case of `Cc1ccc(C(=O)Nc2cc(C(C)(C)C)on2)cc1Nc1ncnc2cncnc12` [V-1], the IC50 was 2 nM.

For the compound `Cc1ccc(C(=O)Nc2cc(CN3CCCC3)cc(C(F)(F)F)c2)cc1Nc1ncnc2cncnc12` [V-8], the IC50 was found to be 4 nM. This IC50 is about 2-fold higher than that of the compound before.
